We go through three molecules from patent publication US4000293A, “Method of inhibiting bacterial growth with certain selected 3-chloro-2-oxazolidinones” (Interx Research Corporation, priority 1975, dated 1976).

Series [1] concerns Staphylococcus aureus ATCC 6538. Briefly: germicidal efficiency test (modified serial dilution; time to complete sterilization), Table A. It counts as cell-based. Particulars: pH 7.0. As for the experimental part: The compounds are thus useful as bactericidal agents.
(§1) The compounds of the invention and certain reference compounds were tested in the germidical efficiency test, a modification of the standard serial dilution test, against Staphylococcus aureus ATCC 6538. In the germicidal efficiency test, instead of determining the minimum inhibitory concentration as in the serial dilution test procedure, the time required to effect complete sterilization of the micro-organism when exposed to a given concentration of the test substance is determined. This procedure affords a basis of comparison of the time dependent efficacies of the various test substances which gives a measure not only of the germidical efficacy of the test species but, since as will be seen germicidal efficiency of the N-chloro compounds generally tends to diminish with time, apparently owing to decomposition of, and therefore dilution of, the active species, the test procedure also provides an indication of the efficacy to be expected at varying time intervals after solution of the test species in the application medium. The test procedure is described as follows: A stock solution of known concentration of each compound to be tested was prepared in 0.1M sodium dihydrogen phosphate buffered to pH 7.0. To 5 ml. of the test solution was added 0.2 ml. of an overnight broth culture containing from 6×10^6 to 8×10^6 organisms/ml. of Staphylococcus aureus ATCC 6538 and 5 g. of gelysate peptone and 3 g. of beef extract per 1000 ml. of water. At time intervals of 0.5, 1, 2, 3, 4, 5, 6, 7, 8, 9, 10, 15 and 30 minutes, a loop of this suspension was subcultured into 5 ml. of sterile nutrient broth (5 g. of gelysate peptone and 3 g. of beef extract/1000 ml. of water), and the samples were incubated at 37° C. for 7 days with daily observation for evidence of bacterial growth. The time interval in which no bacterial growth was observed after the incubation period in a particular sample was recorded as the end point.
(§2) The germicidal kill times so-obtained at various concentrations of the compounds of the invention and of certain reference compounds are given in Table A below. The compounds are identified in each case by the Example number above where the compounds are described. Here and elsewhere in the specification that follows, concentrations are expressed in parts per million (ppm) of "positive" chlorine, which was determined in each instance by addition of excess aqueous potassium iodide to an acidified solution of the test compound and titration of the iodine liberated with standard sodium thiosulfate solution.

For series [2] the test system is unchanged. Briefly: contact germicidal (bactericidal) time before and after 14 day incubation of solutions at 40° C., Table B. It counts as cell-based. Particulars: pH 7.0; for Bc Time, final: after 14 day incubation at 40° C.; for Bc Time, initial: before incubation, at initial ppm +Cl of the same line. As for the experimental part:
as §1
(§3) The stabilities and the time-dependent efficacies of the claimed and reference species were determined by comparing the contact germicidal times and the initial and final concentrations of positive chlorine in solutions of the test species in 0.1M sodium dihydrogen phosphate buffered to pH 7.0 before and after 14 day incubation of the solutions at 40° C. The results are given in Table B below, where the columns headed "Bc Time" refers to the bactericidal time in minutes.

The nature of series [3]: positive chlorine concentration before and after 14 day incubation of solutions at pH 7.0, 40° C., Table B. It counts as physicochemical. Conditions: for Final Concn. of positive chlorine: after 14 day incubation at 40° C.; for Final Concn. of positive chlorine / Initial Concn. of positive chlorine: 0.1M phosphate pH 7.0; for Initial Concn. of positive chlorine: before incubation. As for the experimental part: as §2, §3

Series [4] can be described thus: stability in the neat state (% chlorine by iodometric titration), Table D. It counts as physicochemical. Conditions: for % Cl, neat: 40° C. As for the experimental part: In those instances, the data were acquired at ambient temperature (approximately 23° C.). The method used was similar to that described above in which the rate of disappearance of "positive" chlorine was followed iodometrically by titration of iodine liberated from added potassium iodide with standard sodium thiosulfate solution. Samples of the compounds were individually sealed in ampoules and stored in the dark at 23° C. or 40° C. and weighed amounts removed from time to time for analysis.
For each of the compounds analyzed as indicated above, percent chlorine was plotted as ordinate against time in days as abscissa on semi-logarithmic paper and the points connected by a smooth curve for each compound.

Turning to `CCC1CN(Cl)C(=O)O1` (centres unmarked) [Example 1E, 3-Chloro-5-ethyl-2-oxazolidinone], the “Bactericidal Time” value in series [1] (96 ppm +Cl) was 6 min; in series [1] (161 ppm +Cl), 2 min; in series [1] (372 ppm +Cl) it was 3 min; in series [1] (535 ppm +Cl), 1 min. Besides, the “Bc Time, final” value in series [2] was over 30 min. Also, the “Bc Time, initial” value in series [2] was 1 min. Besides, the “Final Concn. of positive chlorine” value in series [3] was determined as 15 ppm +Cl. The “Initial Concn. of positive chlorine” value in series [3] is given as 535 ppm +Cl.

In the case of `CCC1(C)COC(=O)N1Cl` (centres unmarked) [Example 1H, 3-Chloro-4-ethyl-4-methyl-2-oxazolidinone], the “stability in the neat state (in words)” value in series [4] was “surprising stability”. In addition, the “% Cl, neat” value in series [4] (0 Days) is 21.7%; in series [4] (2 Days), 23.6%; in series [4] (5 Days), 21.1%; in series [4] (10 Days), 20.7%; in series [4] (14 Days) it was 21.0%; in series [4] (18 Days) it was 20.6%. The “% Cl, neat” value in series [4] (25 Days) was found to be 18.2%; in series [4] (39 Days), 22.3%; in series [4] (53 Days) it was 20.2%; in series [4] (164 Days) it was 19.6%. Moreover, the “Bc Time, final” value in series [2] worked out at 3 min. Further, the “bactericidal activity after the test period (in words)” value in series [2] (after 14 days at 40° C.) is reported as “retained the original level of bactericidal activity”. Also, in series [2], the “Bc Time, initial” value is 3 min. In addition, the “decomposition over the test period (in words)” value in series [3] (14 days, 40° C., pH 7.0) is “decomposed only slightly over the test period”. Also, in series [3], the “Final Concn. of positive chlorine” value is given as 553 ppm +Cl. Besides, in series [3], the “Initial Concn. of positive chlorine” value was 555 ppm +Cl.

With `CC1CN(Cl)C(=O)O1` (centres unmarked) [Example 1D, 3-Chloro-5-methyl-2-oxazolidinone], the “Bactericidal Time” value in series [1] (74 ppm +Cl) was over 30 min. In addition, the “Bactericidal Time” value in series [1] (383 ppm +Cl) came to 2 min. For the same molecule, in series [1] (548 ppm +Cl), the “Bactericidal Time” value came out at 0.5 min. Further, in series [2], the “Bc Time, final” value was over 30 min and the “Bc Time, initial” value came out at 0.5 min. For the same molecule, in series [3], the “Final Concn. of positive chlorine” value was found to be 34 ppm +Cl and the “Initial Concn. of positive chlorine” value amounted to 548 ppm +Cl.
